Measurements from patent US6544989B2, “Benzazoles: benzoxazole, benzthiazole and benzimidazole derivatives” (Syngenta Limited, priority 1998, dated 2003).

What was measured:
[1] = system: Musca domestica; settings: 500 ppm by weight; knockdown assessed 15 minutes after treatment
Experimental: (§1) The activities of individual compounds of formula (I) were determined using a variety of pests. With the exception of nematodes, the pests were treated with a liquid composition containing 500 parts per million (ppm) by weight of a compound unless otherwise stated. Each composition was made by dissolving the compound in an acetone and ethanol (50:50 by volume) mixture and diluting the solution with water containing 0.05% by volume of a wetting agent, SYNPERONIC NP8, until the liquid composition contained the required concentration of the compound.
The test procedure adopted with regard to each pest, except nematodes, was essentially the same and composed supporting a number of the pests on a medium which was usually a substrate, a host plant or a foodstuff on which the pests feed, and treating either or both the medium and the pests with a composition. Pest mortality was assessed usually between three and five days after treatment Knockdown of housefly (Musca domestica) was assessed 15 minutes after treatment

[2] = system: Meloidogyne incognita; assay: Nematode test, J2 infective juveniles of Meloidogyne incognita, mortality; settings: 12.5 ppm; J2 infective juveniles suspended in solution; mortality after three days
Experimental: as §1
The test procedure for nematodes involved dissolving the compound in an acetone and ethanol (50:50 by volume) mixture and diluting the solution with water to obtain a final concentration of the compound of 12.5 ppm. J2 infective juveniles of Meloidogyne incognita were suspended in the solution in a glass vial and mortality assessed after a period of three days.

[3] = system: Phytophthora infestans lycopersici; assay type: in vivo; settings: METHOD 2 (unbanded)
[4] = system: Septoria nodorum; assay: Fungicidal test, Septoria nodorum (LEPTNO) on wheat, PRCO; assay type: in vivo; settings: METHOD 2 (unbanded)
[5] = system: Puccinia recondita; assay: Fungicidal test, Puccinia recondita (PUCCRT) on wheat, PRCO; assay type: in vivo; settings: METHOD 2 (unbanded)
[6] = system: Erysiphe graminis f.sp. tritici; assay: Fungicidal test, Erysiphe graminis f.sp. tritici (ERYSGT) on wheat, PRCO; assay type: in vivo; settings: 1 d Prot/Foir; METHOD 2 (unbanded)
[7] = system: Uncinula necator; assay: Fungicidal test, Uncinula necator (UNCINE) on vines, PRCO; assay type: in vivo; settings: METHOD 2 (unbanded)

Structure (SMILES)	MUSCDO AC = Musca domestica (knockdown), score [1]	MELGIN = Meloidogyne incognita, grading of mortality (score) [2]	PHYTIN 1 d Prot/Foir PRCO [3]	LEPTNO 1 d Prot/Foir PRCO [4]	PUCCRT 1 d Prot/Foir PRCO [5]	ERYSGT 1 d Prot/Foir PRCO [6]	UNCINE 1 d Prot/Foir PRCO [7]
COCN(C(=O)Cc1ccc2oc(CC(C)(C)C)nc2c1)c1snc(C)c1Cl [15(K3)]	0 (0 indicates less than 40% mortality)	0 (0 indicates less than 40% mortality)					
CCCc1nc2ccc(CC(=O)Nc3snc(C)c3Cl)cc2o1 [4(A23)]	0 (0 indicates less than 40% mortality)	0 (0 indicates less than 40% mortality)	100	63	100	59	
CC=Cc1nc2cc(CC(=O)Nc3snc(C)c3Cl)ccc2o1 [45(A3)]	9 (9 indicates 80-100% mortality)	0 (0 indicates less than 40% mortality)					
C=CCN(C(=O)Cc1ccc2oc(C)nc2c1)c1snc(C)c1Cl [2(E3)]	0 (0 indicates less than 40% mortality)	0 (0 indicates less than 40% mortality)	98		99		
Cc1nsc(NC(=O)Cc2ccc3oc(-c4ccncc4)nc3c2)c1Cl [339(A3)]	0 (0 indicates less than 40% mortality)	0 (0 indicates less than 40% mortality)	0	0	31	−7	
CCCc1nc2cc(CC(=O)N(CCC)c3snc(C)c3Cl)ccc2o1 [4(D3)]	0 (0 indicates less than 40% mortality)	0 (0 indicates less than 40% mortality)	96		90		
Cc1nsc(NC(=O)Cc2ccc3oc(-c4ccccc4F)nc3c2)c1Cl [272(A3)]		0 (0 indicates less than 40% mortality)					
COCCOCN(C(=O)Cc1ccc2oc(C)nc2c1)c1snc(C)c1Cl [2(M3)]	0 (0 indicates less than 40% mortality)	0 (0 indicates less than 40% mortality)	83		68		
Cc1nc2cc(CC(=O)N(C)c3snc(C)c3Cl)ccc2o1 [2(B3)]	9 (9 indicates 80-100% mortality)	0 (0 indicates less than 40% mortality)	100		96		
CCCc1nc2cc(CC(=O)N(C)c3snc(C)c3Cl)ccc2o1 [4(B3)]	0 (0 indicates less than 40% mortality)	0 (0 indicates less than 40% mortality)	100		48		
COCCOCN(C(=O)Cc1ccc2oc(CC(C)(C)C)nc2c1)c1snc(C)c1Cl [15(M3)]	0 (0 indicates less than 40% mortality)	0 (0 indicates less than 40% mortality)	98		6		
C=CCN(C(=O)Cc1ccc2oc(CCC)nc2c1)c1snc(C)c1Cl [4(E3)]	0 (0 indicates less than 40% mortality)	0 (0 indicates less than 40% mortality)	95		97		
Cc1nsc(NC(=O)Cc2ccc3oc(Cl)nc3c2)c1Cl [174(A3)]	0 (0 indicates less than 40% mortality)	0 (0 indicates less than 40% mortality)					
CCCc1nc2cc(CC(=O)N(COCCOC)c3snc(C)c3Cl)ccc2o1 [4(M3)]	0 (0 indicates less than 40% mortality)	0 (0 indicates less than 40% mortality)	81		85		
Cc1nsc(NC(=O)Cc2ccc3oc(-c4cccnc4Cl)nc3c2)c1Cl [343(A3)]		0 (0 indicates less than 40% mortality)					
COCN(C(=O)Cc1ccc2oc(C)nc2c1)c1snc(C)c1Cl [2(K3)]	9 (9 indicates 80-100% mortality)	0 (0 indicates less than 40% mortality)	98		97		
CCCN(C(=O)Cc1ccc2oc(C)nc2c1)c1snc(C)c1Cl [2(D3)]	0 (0 indicates less than 40% mortality)	0 (0 indicates less than 40% mortality)	59		96		
Cc1nsc(NC(=O)Cc2ccc3oc(C4CCCCC4)nc3c2)c1Cl [35(A3)]	0 (0 indicates less than 40% mortality)	0 (0 indicates less than 40% mortality)	84	−15	100	93	

Structure (SMILES)	MUSCDO AC = Musca domestica (knockdown), score [1]	MELGIN = Meloidogyne incognita, grading of mortality (score) [2]	PHYTIN 1 d Prot/Foir PRCO [3]	LEPTNO 1 d Prot/Foir PRCO [4]	PUCCRT 1 d Prot/Foir PRCO [5]	ERYSGT 1 d Prot/Foir PRCO [6]	UNCINE 1 d Prot/Foir PRCO [7]
Cc1nc2ccc(CC(=O)Nc3snc(C)c3Cl)cc2o1 [2(A23)]	0 (0 indicates less than 40% mortality)	0 (0 indicates less than 40% mortality)	100	53	77	−3	
C#CCN(C(=O)Cc1ccc2oc(CCC)nc2c1)c1snc(C)c1Cl [4(F3)]	0 (0 indicates less than 40% mortality)	0 (0 indicates less than 40% mortality)	99		100		
Cc1nsc(NC(=O)Cc2ccc3oc(Cc4cccs4)nc3c2)c1Cl [334(A3)]		0 (0 indicates less than 40% mortality)					
Cc1nsc(NC(=O)Cc2ccc3oc(S)nc3c2)c1Cl [352(A3)]	0 (0 indicates less than 40% mortality)	0 (0 indicates less than 40% mortality)	100		100		
Cc1nsc(NC(=O)Cc2ccc3oc(C(F)(F)C(F)(F)Cl)nc3c2)c1Cl [86(A3)]		0 (0 indicates less than 40% mortality)					
CCOCN(C(=O)Cc1ccc2oc(C)nc2c1)c1snc(C)c1Cl [2(L3)]	9 (9 indicates 80-100% mortality)	0 (0 indicates less than 40% mortality)	82		93		
Cc1nsc(NC(=O)Cc2ccc3oc(-c4ccno4)nc3c2)c1Cl [349(A3)]		0 (0 indicates less than 40% mortality)					
Cc1nsc(NC(=O)Cc2ccc3oc(-c4ccc([N+](=O)[O-])cc4Cl)nc3c2)c1Cl [267(A3)]		0 (0 indicates less than 40% mortality)					
CCCc1nc2cc(CC(=O)N(CC)c3snc(C)c3Cl)ccc2o1 [4(C3)]	0 (0 indicates less than 40% mortality)	0 (0 indicates less than 40% mortality)	79		96		
C=CCN(C(=O)Cc1ccc2oc(CC(C)(C)C)nc2c1)c1snc(C)c1Cl [15(E3)]	0 (0 indicates less than 40% mortality)	0 (0 indicates less than 40% mortality)	83		74		
C#CCN(C(=O)Cc1ccc2oc(C)nc2c1)c1snc(C)c1Cl [2(F3)]	0 (0 indicates less than 40% mortality)	0 (0 indicates less than 40% mortality)	100		90		
Cc1nsc(NC(=O)Cc2ccc3oc(SCC#N)nc3c2)c1Cl [228(A3)]	0 (0 indicates less than 40% mortality)	0 (0 indicates less than 40% mortality)	66		6		
Cc1nsc(NC(=O)Cc2ccc3oc(O)nc3c2)c1Cl [351(A3)]	0 (0 indicates less than 40% mortality)	0 (0 indicates less than 40% mortality)					11
CCCc1nc2cc(CC(=O)N(COCC)c3snc(C)c3Cl)ccc2o1 [4(L3)]	9 (9 indicates 80-100% mortality)	0 (0 indicates less than 40% mortality)	100		100		
CCCc1nc2cc(CC(=O)N(COC)c3snc(C)c3Cl)ccc2o1 [4(K3)]	0 (0 indicates less than 40% mortality)	0 (0 indicates less than 40% mortality)	98		100		
CCN(C(=O)Cc1ccc2oc(C)nc2c1)c1snc(C)c1Cl [2(C3)]	9 (9 indicates 80-100% mortality)	0 (0 indicates less than 40% mortality)	150		74		
C#CCN(C(=O)Cc1ccc2oc(CC(C)(C)C)nc2c1)c1snc(C)c1Cl [15(F3)]	0 (0 indicates less than 40% mortality)	0 (0 indicates less than 40% mortality)	100		95		
